Assay results reported in patent US20250163057A1, “DCN-1 MODULATING COMPOUNDS AND METHODS OF USE THEREOF” (Cellarity, Inc., priority 2023, published 2025).
Where two headings read alike, the source gives them in different places.

Key:
[1] = system: Cullin-3 (CUL3) neddylation; assay: AlphaLISA assay for Cullin-3 (CUL3) neddylation in TF 1 cells; format: cell-based; details: 3 hours treatment
Summary of the method: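 Neddylated CUL3 was quantified by AlphaLISA in lysates of TF 1 cells exposed for 3 h to test compound in IMDM without supplements. Percent inhibition set between vehicle and 1 μM DI-1548 positive control; IC50 derived by Hill-equation fitting of dose-response curves.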

[2] = molecular target: DCN1 (DCUND1) protein PONY domain (Homo sapiens (Human), UniProt Q96GG9); assay: TR-FRET assay, DCN1 binding with FAM-labeled probe
Summary of the method: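 First, the E. coli-derived PONY domain was biotinylated and paired with streptavidin Tb cryptate. Compounds in 0.1% DMSO were then added to DCN1 and FAM-probe (5 nM/20 nM, or 0.31 nM/900 nM total with 800 nM unlabelled) in TritonX, 200 mM NaCl buffer. Finally, TR-FRET ratios were recorded at 1, 5 and 24 hrs.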

fetal hemoglobin protein = assay: HbF HPLC Cell Culture Assay; format: cell-based; details: for EC50: 336 h, HbF induction, Day 14 of culture; for Hemoglobin HPLC Ymax obs (%): relative to a control compound
Method: A Cell Culture Assay was performed to evaluate the ability of compounds to induce fetal hemoglobin in a cell culture. The amount fetal hemoglobin protein induced was measured by HPLC.
Cell culture began on Day −4 (thaw day). Thaw buffer was prepared by sterile filtering 6 mL of Human Serum Albumin and 144 mL of PBS to make sterile 1% I/PBS. Cells were removed from liquid nitrogen storage and mostly thawed in a 37° C. water bath. Once the ice in the cryovials was melted, cells were transferred quickly into a 50 mL conical tube. Cryovial was rinsed once with thaw buffer and buffer was transferred over to the conical tube as well. Next, doubling volumes of thaw buffer was added to the conical and gently swirled for ˜30 seconds to one minute (for example: 2 mL was added and swirled, then 4 mL, then 8 mL, and so on) until the volume in the conical is 32 mL. Cells and buffer were centrifuged at 300G for 8 minutes, and the supernatant was aspirated. Another 32 mL of thaw buffer was added slowly, swirling the tube. The tube was again centrifuged at 300G for 8 minutes and the supernatant was aspirated. Cells were counted by resuspending in 1 mL of expansion media and counting with AOPI to determine the concentration of cells/mL.
On day 2, Passage & Treatment Day, each cell culture well was counted. Next fresh CD34 Expansion Media was made which contained StemSpan SFEM, CC100 and TPO all from StemCell technologies. Appropriate volume of cells was collected, centrifuged at 300 g and resuspended in fresh media. Cells were plated in treatment format at a density of 200,000 cells/ml, 25,000 cells/well. Finally, they were treated with test compounds as well as positive and negative controls.
On Days 0, 3 & 5 the same process was carried out. First, each cell culture well was counted. Next Phase 1 Erythroid Differentiation Media was freshly made, which contained StemSpan SFEM, 2.5 U/ml EPO, 0.5 mg/ml Holo-TF, 1× Glutamax, 5 μl/ml chemically defined lipid mixture, 10 ng/ml insulin, 50 ng/ml SCF, 10 ng/ml IL-3. Appropriate volume of cells was collected, centrifuged at 300 g and resuspended in fresh media. Cells should now be in fresh wells at a density of 100,000 cells/ml. 60,000 cells, 60,000 cells and 100,000 cells for days 0, 3, 5 respectively. Finally, fresh compound was added to each well at each timepoint (Days 0, 3 & 5).
On Day 7 media and cell culture density changes. Each cell culture well was counted. Next, Phase 2 Erythroid Differentiation Media was freshly made, which contains StemSpan SFEM, 2.5 U/ml EPO, 0.5 mg/ml Holo-TF, 1× Glutamax, 5 μl/ml chemically defined lipid mixture, 10 ng/ml insulin, 50 ng/ml SCF. Appropriate volume of cells was collected, centrifuged at 300 g and resuspended in fresh media. Cells were plated in fresh wells at a density of 500,000 cells/ml, 300,000 cells/well. Finally, fresh compound was added to each well at Day 7 timepoint.
On Day 10 media formulation is once again changed. Each cell culture well was counted. Fresh Phase 3 Erythroid Differentiation Media was made which contains StemSpan SFEM, 2.5 U/ml EPO, 0.5 mg/ml Holo-TF, 1× Glutamax, 5 μl/ml chemically defined lipid mixture, 10 ng/ml insulin. Appropriate volume of cells was collected, centrifuged at 300 g and resuspended in fresh media. Cells were plated in fresh wells at a density of 500,000 cells/ml, 500,000 cells/well. Finally, fresh compound was added to each well at Day 10 timepoint.
On Day 12 the cell density is once again changed. Each cell culture well was counted. Fresh Phase 3 Erythroid Differentiation Media was made. Appropriate volume of cells was collected, centrifuged at 300 g and resuspended in fresh media. Cells were plated in fresh wells at a density of 1,000,000 cells/ml, 1,000,000 cells/well. Finally fresh compound was added to each well.
Day 14 (18th day of experiment) refers to the terminal day of culture. Each cell culture well was counted. Next between 150K and 650K cells were placed in a uniquely labeled 1.5 ml standard tube. […]

DCN1 protein = DCN1 protein (Homo sapiens (Human), UniProt Q96GG9); assay: Intact Protein MS Analysis with the RapidFire-TOF System (covalent adduct formation); format: binding; details: MS Emax; 400 nM DCN1, 3 hours at room temperature
Summary of the method: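 Tag-cleaved human DCN1 (400 nM) expressed in E. coli, in 25 mM Tris-HCl, 200 mM NaCl, 1 mM DTT, was incubated with 11 compound concentrations for 3 h at room temperature and quenched with 0.2% formic acid. Intact-protein Q-TOF MS with deconvolution detected the compound adduct mass.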

[3] = molecular target: DCN2 (DCUND2) protein PONY domain (Homo sapiens (Human), UniProt Q6PH85); assay: Measurement of Kinact/KI in the DCN2 TR-FRET Assay; format: binding
Method: A TR-FRET Assay was performed to evaluate the ability of the compounds to bind DCN-2.
The time resolved—Forster's resonance energy transfer (TR-FRET) assay was designed following the protocol established in (Scott et al., Nat Chem Biol. 2017 August; 13(8): 850-857). A recombinant form of the DCN2 (DCUND2) protein PONY domain was produced using an E. coli expression system at Viva Biotech China. The DCN2 protein was biotinylated (EZ sulfo-NHS-LC-biotin; Thermofisher) for labeling with 2.5 nM streptavidin terbium (Tb) cryptate in the reaction. The probe was changed to a non-covalent DCN1 inhibitor labeled with carboxyfluorescein (FAM; Zhou et al, Nat Commun. 2017; 8: 1150). Buffer conditions were modified to enhance protein stability by replacing TritonX with 0.05% Tween20 and increasing NaCl to 200 mM. The compounds were screened against 0.31 nM DCN1 and 40 nM FAM-labeled probe in a 40 ul reaction volume. The TR-FRET ratio between Tb-DCN1 and the FAM-labeled probe was measured in a 384-well opti-plate (Perkin Elmer) using a plate reader (BMG) at after treatment with compound (final DMSO concentration of 0.1%). The ratio was normalized to the high (DCN1 and FAM-probe) and low (DCN1 and no probe) controls for a readout of % activity (=100*(x−low)/(high−low)).
The Kinact and KI measurements were taken to allow for continuous reads over 24 hrs. Plates were read every 5 min up to 1 hr, every 15 min up to 5 hr, and every hour up to […]. Kinact and KI were calculated based on the following equations (Krippendorff B F, et al. Mechanism-based inhibition: deriving K(I) and k(inact) directly from time-dependent IC(50) values. J BiomolScreen. 2009; Mons E et al. A Comprehensive Guide for Assessing Covalent Inhibition in Enzymatic Assays Illustrated with Kinetic Simulations. CurrProtoc. 2022) where the KM of the probe against DCN2 is 21.62 nM. The Kinact and KI values could be estimated from the tight curves of the IC50 values over time.

[4] = 24 hr after treatment with compound, read-out: TR FRET IC50 24 hr
[5] = TR FRET IC50 1 hr (nM), 1 hr after treatment with compound
[6] = time-dependent IC50 over 24 hrs

Sequence of DCN1 (DCUND1) protein PONY domain (Q96GG9 60-248): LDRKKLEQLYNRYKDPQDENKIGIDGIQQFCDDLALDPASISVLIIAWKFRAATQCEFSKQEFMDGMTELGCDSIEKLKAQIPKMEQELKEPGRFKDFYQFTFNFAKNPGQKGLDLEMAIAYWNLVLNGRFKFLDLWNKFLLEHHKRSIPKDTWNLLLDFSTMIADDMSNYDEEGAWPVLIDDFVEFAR
Sequence of DCN1 protein (Q96GG9 whole entry): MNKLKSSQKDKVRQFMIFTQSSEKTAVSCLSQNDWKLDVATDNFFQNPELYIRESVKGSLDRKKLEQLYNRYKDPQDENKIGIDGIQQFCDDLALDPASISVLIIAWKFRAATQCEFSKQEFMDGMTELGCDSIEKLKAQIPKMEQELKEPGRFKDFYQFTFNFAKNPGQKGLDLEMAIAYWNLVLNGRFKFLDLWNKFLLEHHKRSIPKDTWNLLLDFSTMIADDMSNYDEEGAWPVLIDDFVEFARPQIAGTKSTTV
Sequence of DCN2 (DCUND2) protein PONY domain (Q6PH85 60-248): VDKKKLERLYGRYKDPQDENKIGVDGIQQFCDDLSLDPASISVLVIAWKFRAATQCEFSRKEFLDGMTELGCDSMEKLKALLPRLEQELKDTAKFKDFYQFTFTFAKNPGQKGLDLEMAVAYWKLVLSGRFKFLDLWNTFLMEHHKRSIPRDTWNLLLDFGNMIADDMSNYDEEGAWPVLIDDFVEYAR

| Structure (SMILES) | IC50 ([1]; Homo sapiens, TF-1, 3 h) | IC50 [2, 4] | IC50 ([2]; read-out: TR FRET IC50 1 hr, 1 hr after treatment with compound) | EC50 (fetal hemoglobin protein) | Hemoglobin HPLC Ymax obs (%) (fetal hemoglobin protein) | % Adduct Formation (DCN1 protein) | IC50 [2, 5] | IC50 [1] | kinact/KI [3] | Ki [3, 6] | kinact [3, 6] |
| --- | --- | --- | --- | --- | --- | --- | --- | --- | --- | --- | --- |
| CCN1C(=O)[C@@H](NC(=O)c2cccc(C(F)(F)F)c2)C(c2ccc(F)cc2)c2c(C(=O)N(CC#N)C3COC3)nn(-c3ccccc3)c21 (mixture of isomers) [Compound I-285] | ≤ 100 nM | ≤ 200 nM | ≤ 200 nM | ≤ 50 nM | ++ (Hemoglobin HPLC Ymax greater than 65.0 and less than or equal to 100.0) | +++ (MS Emax % adduct formation greater than 80.0 and less than or equal to 100.0) |  |  |  |  |  |
| CCN1C(=O)[C@@H](NC(=O)c2cccc(C(F)(F)F)c2)[C@@H](c2ccc(F)cc2)c2c(C(=O)N(C)CC#N)nn(-c3ccccc3)c21 (racemic) [Compound I-5, rac-(4R,5R)—N-(cyanomethyl)-7-ethyl-4-(4-fluorophenyl)-N-methyl-6-oxo-1-phenyl-5-(3-(trifluoromethyl)benzamido)-4,5,6,7-tetrahydro-1H-pyrazolo[3,4-b]pyridine-3-carboxamide] | ≤ 100 nM | ≤ 200 nM |  | 50 to 200 nM | ++ (Hemoglobin HPLC Ymax greater than 65.0 and less than or equal to 100.0) | +++ (MS Emax % adduct formation greater than 80.0 and less than or equal to 100.0) | ≤ 200 nM |  |  |  |  |
| CCN1C(=O)[C@@H](NC(=O)c2cccc(C(F)(F)F)c2)[C@@H](c2ccc(F)cc2)c2c(C(=O)N3CCC[C@H]3C#N)nn(-c3ccccc3)c21 (racemic) [Compound I-34] | ≤ 100 nM | ≤ 200 nM |  | > 200 nM |  |  | ≤ 200 nM |  |  |  |  |
| CCN1C(=O)[C@@H](NC(=O)c2cccc(C(F)(F)F)c2)[C@@H](c2ccc(F)cc2)c2c(C(=O)N(C)[C@@H](C#N)CCN(C)C)nn(-c3ccccc3)c21 (relative stereo) [Compound I-304, (4S,5S)—N-[(1R*)-1-cyano-3-(dimethylamino)propyl]-7-ethyl-4-(4-fluorophenyl)-N-methyl-6-oxo-1-phenyl-5-[3-(trifluoromethyl)benzamido]-4H,5H-pyrazolo[3,4-b]pyridine-3-carboxamide] |  |  |  |  | ++ (Hemoglobin HPLC Ymax greater than 65.0 and less than or equal to 100.0) | +++ (MS Emax % adduct formation greater than 80.0 and less than or equal to 100.0) |  |  |  |  |  |
| CCN1C(=O)[C@@H](NC(=O)c2cccc(C(F)(F)F)c2)[C@@H](c2ccc(F)cc2)c2c(C(=O)N(C)[C@@H](C#N)C3COC3)nn(-c3ccccc3)c21 (single isomer, unassigned) [Compound I-294] |  |  |  | 50 to 200 nM | ++ (Hemoglobin HPLC Ymax greater than 65.0 and less than or equal to 100.0) | +++ (MS Emax % adduct formation greater than 80.0 and less than or equal to 100.0) |  | ≤ 100 nM |  |  |  |
| CCN1C(=O)[C@@H](NC(=O)c2cccc(C(F)(F)F)c2)[C@@H](c2ccc(F)cc2)c2c(C(=O)N(C)[C@@H](C#N)CCN(C)C)nn(-c3ccccc3)c21 (single isomer, unassigned) [Compound I-304, (4S,5S)—N-[(1R*)-1-cyano-3-(dimethylamino)propyl]-7-ethyl-4-(4-fluorophenyl)-N-methyl-6-oxo-1-phenyl-5-[3-(trifluoromethyl)benzamido]-4H,5H-pyrazolo[3,4-b]pyridine-3-carboxamide] | ≤ 100 nM |  |  | ≤ 50 nM |  |  |  |  |  |  |  |
| C=C(CN1CCOCC1)C(=O)NC[C@@H](NC(=O)[C@H](Cc1nc2ccc(C(C)C)cc2s1)NC(=O)CC)C1CCCCC1 [DI-1548, reference compound] |  |  |  |  |  |  |  |  | 0.9971 nM − 1 * min − 1 | 0.355 nM | 0.3536 min^ − 1 |
